Where two headings read alike, the source gives them in different places.
Assays:
[1] = tested on: slow component of the delayed rectifier current in native colonic myocytes; conditions: 1 microM; cited from earlier work
[2] = target: T1, Kv2.2 (UniProt Q92953); conditions: cited from earlier work; for IC50: read-out: IC50, inhibition of Kv2.2 current
T1 sequence (Q92953 1-911): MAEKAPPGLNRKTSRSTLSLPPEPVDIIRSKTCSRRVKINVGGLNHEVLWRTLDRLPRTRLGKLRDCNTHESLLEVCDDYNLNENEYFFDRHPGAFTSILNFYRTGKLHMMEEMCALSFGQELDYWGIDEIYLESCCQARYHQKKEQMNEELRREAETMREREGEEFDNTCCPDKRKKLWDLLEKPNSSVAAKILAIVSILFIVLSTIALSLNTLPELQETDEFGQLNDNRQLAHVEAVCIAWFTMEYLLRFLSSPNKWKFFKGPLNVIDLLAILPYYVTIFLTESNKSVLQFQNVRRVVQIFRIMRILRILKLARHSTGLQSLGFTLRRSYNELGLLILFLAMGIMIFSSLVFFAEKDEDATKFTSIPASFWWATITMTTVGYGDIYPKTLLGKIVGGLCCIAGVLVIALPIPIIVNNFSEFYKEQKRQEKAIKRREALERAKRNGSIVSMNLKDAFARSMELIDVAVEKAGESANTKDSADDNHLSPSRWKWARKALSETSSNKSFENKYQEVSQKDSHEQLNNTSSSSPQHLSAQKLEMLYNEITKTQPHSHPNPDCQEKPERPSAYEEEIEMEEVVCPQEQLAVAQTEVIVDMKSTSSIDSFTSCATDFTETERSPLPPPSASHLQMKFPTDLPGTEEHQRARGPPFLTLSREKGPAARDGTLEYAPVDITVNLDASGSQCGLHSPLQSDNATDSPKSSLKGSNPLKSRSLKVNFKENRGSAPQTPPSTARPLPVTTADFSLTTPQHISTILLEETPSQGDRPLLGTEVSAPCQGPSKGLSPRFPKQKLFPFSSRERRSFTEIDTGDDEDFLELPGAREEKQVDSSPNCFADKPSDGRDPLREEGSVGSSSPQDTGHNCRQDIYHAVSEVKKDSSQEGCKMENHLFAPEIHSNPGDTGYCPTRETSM

[3] = tested on: Kv2.1; conditions: Kv2.1 alone; cited from earlier work
[4] = tested on: Kv2.1/Kv9.1; conditions: cited from earlier work
[5] = tested on: cortical or hippocampal neurons; conditions: in vitro; cited from earlier work
[6] = tested on: nigral dopaminergic neurons; conditions: gel foam implants in the striatum; cited from earlier work
[7] = tested on: nigral dopaminergic neurons; conditions: tissue culture paradigms; cited from earlier work
[8] = tested on: Human lung fibroblasts; assay: Human lung fibroblast growth, Alamar Blue; type: cell-based; conditions: 3 days in basal medium
Method: Human lung fibroblasts are obtained from Clonetics (San Diego, Calif.) and maintained in growth media from Clonetics. Dermal microvascular endothelial cells are obtained from Cell Applications (San Diego, Calif.). For proliferation assays, the human lung fibroblasts and dermal microvascular endothelial cells can be cultured at 5,000 cells/well in a 96-well plate for one day in growth medium. The cells are then incubated for one day in 0.1% BSA basal medium. After replacing the medium with fresh 0.1% BSA medium, the cells are incubated with the test proteins for 3 days. Alamar Blue (Alamar Biosciences, Sacramento, Calif.) is added to each well to a final concentration of 10%. The cells are incubated for 4 hr. Cell viability is measured by reading in a CytoFluor fluorescence reader. For the PGE2 assays, the human lung fibroblasts are cultured at 5,000 cells/well in a 96-well plate for one day. […]

[9] = Xenopus oocytes injected with Kv2.2 mRNA

Which “block of delayed rectifier current” value [1] does the source give for `C=C[C@H]1C[N@@]2CC[C@H]1C[C@H]2[C@H](O)c1ccnc2ccc(OC)cc12` [quinine] here?
Its value is “preferentially block the slow component of the delayed rectifier current”.

What about the IC50 [2, 9] of the same compound?
Its IC50 is 13.7 µM.

Which “sensitivity of currents to blocker” value [3] does the source give for `CC[N+](CC)(CC)CC` [tetraethylammonium] here?
Its value is “sensitive”.

And the “effect on biphasic voltage-dependence of currents” value ([4]; 20 mM)?
The value was “eliminate the biphasic voltage-dependence”.

And the “sensitivity of currents to blocker” value ([4]; Kv2.1/Kv9.1)?
Its value is “sensitive”.

What about the IC50 [2] of the same compound?
The IC50 was 2600 µM.

What does the source list for “FGF-2: FGF-2 (basic FGF), fibroblast growth factor”?
neurite outgrowth [5]: increases; neuron survival [5]: increases; protection of nigral dopaminergic neurons from MPTP toxicity [6]: near complete protection; activity towards nigral dopaminergic neurons [7]: trophic activity; concentration showing stimulation of fibroblast growth [8]: 10 to 2500 ng/mL

Which “sensitivity of Kv2.2 current” value [2, 9] does the source give for charybdotoxin here?
Its value is “insensitive”.
